Test results taken from patent US9670193B2 (Novartis AG, priority 2011, dated 2017).

How the values were obtained:
Assay type in all cases: biochemical
Human recombinant HDAC4 [1] = target: T1, Human recombinant HDAC4 (Homo sapiens (Human), UniProt P56524); experiment: Earlier version of HDAC4 assay; details: 10 μM substrate, test concentrations 0.003 μM to 100 μM
Experimental: Description of Earlier Version of HDAC4 Assay
Human recombinant HDAC4 was expressed in full length form (aa 2-1084) in Sf9 insect cells (obtained from ATCC) using baculovirus generated with Bac-to-Bac system (Invitrogen). Test compounds were serially diluted to reach final test concentrations from 0.003 μM to 100 μM. HDAC4 and test compounds were incubated in 25 mM Tris buffer pH 8.0 containing 137 mM NaCl, 2.7 mM KCl, 1 mM MgCl2 and 0.05% (w/v) bovine serum albumine for 2 hours at room temperature in presence of 10 μM of acetyl-Gly-Ala-Lys(ε-trifluoroacetyl)-AMC (AMC=7-amino-4-methyl coumarin) in a final volume of 200 μl. Control wells with HDAC4 only (positive control) and without HDAC4 (negative control) were included on the microplate. Bovine trypsin (10 μl of a 0.4 mg/ml solution) was added and the plate incubated for additional 15 minutes at room temperature. The plate was placed in a fluorescence microplate reader, and read at an excitation wavelength of 360 nm and an emission wavelength of 450 nm with a cut-off filter of 435 nm. Fluorescence values for all wells containing HDAC4 (positive control and wells with test compound) were corrected by subtracting negative control fluorescence values, and IC50 values were calculated by fitting the dose-response curves to a 4-parameter logistic function.

[2] = target: Human recombinant full length HDAC1 (Homo sapiens (Human), UniProt Q13547); experiment: HDAC1 assay (Test 2), acetyl-Gly-Ala-Lys(acetyl)-AMC substrate; details: 5 μM substrate, 2 hours at room temperature
Sequence of Human recombinant full length HDAC1 (Q13547 whole entry, the tested form may be a part): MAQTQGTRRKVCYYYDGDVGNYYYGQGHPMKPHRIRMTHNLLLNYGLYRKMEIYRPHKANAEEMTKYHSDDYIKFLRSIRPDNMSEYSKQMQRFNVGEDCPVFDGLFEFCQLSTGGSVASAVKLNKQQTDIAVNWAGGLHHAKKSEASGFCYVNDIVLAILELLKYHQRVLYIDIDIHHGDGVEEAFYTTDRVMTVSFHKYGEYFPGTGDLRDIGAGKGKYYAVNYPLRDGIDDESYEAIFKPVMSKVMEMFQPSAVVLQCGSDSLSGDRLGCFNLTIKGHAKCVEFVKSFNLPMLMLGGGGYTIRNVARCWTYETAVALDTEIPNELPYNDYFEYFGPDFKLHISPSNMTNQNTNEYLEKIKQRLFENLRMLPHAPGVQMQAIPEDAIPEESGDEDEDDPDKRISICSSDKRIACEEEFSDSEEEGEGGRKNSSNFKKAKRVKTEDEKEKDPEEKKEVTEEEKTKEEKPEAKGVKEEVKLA
Experimental: (§1) Human recombinant HDAC4 was expressed in full length form (aa 2-1084) in Sf9 insect cells (obtained from ATCC) using baculovirus generated with Bac-to-Bac system (Invitrogen). Test compounds were serially diluted to reach final test concentrations from 0.000128 μM to 10 μM. HDAC4 and test compounds were incubated in 25 mM Tris buffer pH 8.0 containing 137 mM NaCl, 2.7 mM KCl, 1 mM MgCl2, 0.05% (w/v) bovine serum albumine and 0.005% (v/v) Triton-X-100 for 2 hours at room temperature in presence of 5 μM of acetyl-Gly-Ala-Lys(ε-trifluoroacetyl)-AMC (AMC=7-amino-4-methyl coumarin) in a final volume of 9 μl. Control wells with HDAC4 only (positive control) and without HDAC4 (negative control) were included on the microplate. Bovine trypsin (4.5 μl of a 300 nM solution) was added and the plate incubated for additional 15 minutes at room temperature. The plate was placed in a fluorescence microplate reader, and read at an excitation wavelength of 360 nm and an emission wavelength of 450 nm with a 10 nm bandpath. Fluorescence values for all wells containing HDAC4 (positive control and wells with test compound) were corrected by subtracting negative control fluorescence values, and IC50 values were calculated by fitting the dose-response curves to a 4-parameter logistic function.
Test 2: HDAC1 Assay Description
A similar assay procedure as described in Test 1 was used for HDAC1. Human recombinant full length HDAC1 expressed in a baculovirus expression system was purchased from BPS BioSciences (San Diego, Calif., U.S.A.). The substrate used in the […] assay was 5 μM of acetyl-Gly-Ala-Lys(acetyl)-AMC.

Human recombinant HDAC4 [3] = target: T1, Human recombinant HDAC4; experiment: HDAC4 assay (Test 1), fluorescence, acetyl-Gly-Ala-Lys(ε-trifluoroacetyl)-AMC substrate; details: 5 μM substrate, 2 hours at room temperature
Experimental: Test 1: HDAC4 Assay Description
as §1

[4] = target: Human recombinant full length HDAC6 (Homo sapiens (Human), UniProt Q9UBN7); experiment: HDAC6 assay (Test 3), acetyl-Gly-Ala-Lys(acetyl)-AMC substrate; details: 5 μM substrate, 2 hours at room temperature
Sequence of Human recombinant full length HDAC6 (Q9UBN7 whole entry): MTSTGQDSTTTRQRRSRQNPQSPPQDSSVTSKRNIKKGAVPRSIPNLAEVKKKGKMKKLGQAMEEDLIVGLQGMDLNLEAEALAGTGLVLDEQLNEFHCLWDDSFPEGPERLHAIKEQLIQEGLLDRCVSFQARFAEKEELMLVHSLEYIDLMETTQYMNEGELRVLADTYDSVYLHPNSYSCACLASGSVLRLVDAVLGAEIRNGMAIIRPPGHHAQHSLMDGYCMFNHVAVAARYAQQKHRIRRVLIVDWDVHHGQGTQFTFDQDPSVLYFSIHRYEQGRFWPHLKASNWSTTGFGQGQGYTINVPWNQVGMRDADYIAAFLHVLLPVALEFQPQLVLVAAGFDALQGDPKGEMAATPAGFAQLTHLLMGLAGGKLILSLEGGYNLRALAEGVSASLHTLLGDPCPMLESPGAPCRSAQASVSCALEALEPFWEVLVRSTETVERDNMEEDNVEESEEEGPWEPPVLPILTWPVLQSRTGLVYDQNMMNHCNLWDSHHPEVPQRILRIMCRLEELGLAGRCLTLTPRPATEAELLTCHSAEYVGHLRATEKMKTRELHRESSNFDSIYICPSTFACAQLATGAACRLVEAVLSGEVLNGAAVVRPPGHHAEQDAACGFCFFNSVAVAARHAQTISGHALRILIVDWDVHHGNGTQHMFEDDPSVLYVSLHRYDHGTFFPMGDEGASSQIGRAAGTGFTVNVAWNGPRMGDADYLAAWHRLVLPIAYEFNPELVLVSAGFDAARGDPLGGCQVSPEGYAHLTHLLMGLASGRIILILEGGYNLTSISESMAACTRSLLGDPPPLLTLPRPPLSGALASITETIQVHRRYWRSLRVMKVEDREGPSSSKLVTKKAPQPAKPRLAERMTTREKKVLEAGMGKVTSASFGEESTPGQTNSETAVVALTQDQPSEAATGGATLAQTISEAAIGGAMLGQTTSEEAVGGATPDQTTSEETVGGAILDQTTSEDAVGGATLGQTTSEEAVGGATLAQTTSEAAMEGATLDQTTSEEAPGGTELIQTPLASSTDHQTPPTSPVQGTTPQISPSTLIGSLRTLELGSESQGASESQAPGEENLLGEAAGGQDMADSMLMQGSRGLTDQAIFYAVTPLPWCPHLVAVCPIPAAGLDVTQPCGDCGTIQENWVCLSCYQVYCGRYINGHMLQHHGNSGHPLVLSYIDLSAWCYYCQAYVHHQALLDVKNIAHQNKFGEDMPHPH
Experimental: as §1
Test 3: HDAC6 Assay Description
A similar assay procedure as described in Test 1 was used for HDAC6. Human recombinant full length HDAC6 expressed in a baculovirus expression system was purchased from BPS BioSciences (San Diego, Calif., U.S.A.). The substrate used in the […] assay was 5 μM of acetyl-Gly-Ala-Lys (acetyl)-AMC.

T1 sequence (P56524 2-1084): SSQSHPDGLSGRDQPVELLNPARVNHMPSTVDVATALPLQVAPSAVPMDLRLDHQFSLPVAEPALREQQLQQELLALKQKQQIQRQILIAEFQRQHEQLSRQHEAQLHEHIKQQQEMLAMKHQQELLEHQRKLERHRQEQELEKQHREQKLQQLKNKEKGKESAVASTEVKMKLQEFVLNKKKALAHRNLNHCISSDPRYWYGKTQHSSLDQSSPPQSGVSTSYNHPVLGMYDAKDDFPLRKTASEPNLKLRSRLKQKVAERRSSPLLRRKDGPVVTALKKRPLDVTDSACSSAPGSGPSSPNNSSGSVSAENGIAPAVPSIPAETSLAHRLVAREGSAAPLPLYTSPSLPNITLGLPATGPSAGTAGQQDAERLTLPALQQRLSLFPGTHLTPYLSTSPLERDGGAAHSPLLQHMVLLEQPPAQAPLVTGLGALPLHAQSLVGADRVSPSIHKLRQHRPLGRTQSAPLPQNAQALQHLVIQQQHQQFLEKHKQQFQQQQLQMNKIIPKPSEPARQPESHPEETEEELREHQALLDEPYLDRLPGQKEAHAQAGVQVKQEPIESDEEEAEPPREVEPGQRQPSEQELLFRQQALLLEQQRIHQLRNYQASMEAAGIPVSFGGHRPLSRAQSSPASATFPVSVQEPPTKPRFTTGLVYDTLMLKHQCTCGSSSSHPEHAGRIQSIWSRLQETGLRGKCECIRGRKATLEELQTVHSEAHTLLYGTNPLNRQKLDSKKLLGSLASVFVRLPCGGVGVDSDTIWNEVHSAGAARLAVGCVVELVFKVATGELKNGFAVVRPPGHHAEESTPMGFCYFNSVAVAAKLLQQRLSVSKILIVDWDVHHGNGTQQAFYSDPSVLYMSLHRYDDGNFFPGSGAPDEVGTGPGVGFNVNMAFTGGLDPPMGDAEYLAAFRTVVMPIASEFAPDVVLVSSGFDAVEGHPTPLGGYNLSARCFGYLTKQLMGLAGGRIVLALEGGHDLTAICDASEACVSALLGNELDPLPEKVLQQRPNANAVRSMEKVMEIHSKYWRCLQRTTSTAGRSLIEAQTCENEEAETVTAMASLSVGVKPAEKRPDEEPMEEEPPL

Row | IC50 (Human recombinant HDAC4 [1]) [nM] | IC50 [2] [nM] | IC50 (Human recombinant HDAC4 [3]) [nM] | IC50 [4] [nM] | SMILES
1 | > 30000 |  |  |  | C[C@@H](NC(=O)c1cnc(-c2noc(C(F)(F)F)n2)nc1)c1ccccc1 [(R)—N-(1-phenylethyl)-2-(5-(trifluoromethyl)-1,2,4-oxadiazol-3-yl)pyrimidine-5-carboxamide]
2 |  | 3200 | 65 | 610 | C[C@@H](Nc1ccc(-c2noc(C(F)(F)F)n2)nn1)c1ccncc1 [Example 45, (R)—N-(1-(Pyridin-4-yl)ethyl)-6-(5-(trifluoromethyl)-1,2,4-oxadiazol-3-yl)pyridazin-3-amine]
3 |  | > 10000 | 66 | > 10000 | C[C@H](CN(C)Cc1ccccc1)NC(=O)c1cnc(-c2noc(C(F)(F)F)n2)nc1 [Example 46]
4 | > 30000 |  |  |  | O=C(NCc1ccncc1)c1cnc(-c2noc(C(F)(F)F)n2)nc1 [N-(pyridin-4-ylmethyl)-2-(5-(trifluoromethyl)-1,2,4-oxadiazol-3-yl)pyrimidine-5-carboxamide]
